Assay results taken from patent publication US20220226372A1 (priority 2019, published 2022).
“Also recorded” adds a separate entry of the source. Read-outs that look alike come from different tables or passages of the source.

Tests used:
[1] = tested on: chronic sclerodermatous Graft versus Host Disease
HL60 cells [2] = assay type: cell-based, Human
HL60 cells [3] = assay type: cell-based, Human; remark: listed apart in the source
BALB/c mice = experiment: Copper cytotoxicity assessment in mice; assay type: in vivo, mouse; settings: copper 0.2 and 0.5 μg/g, 5 times a week for 5 weeks
Method: To this aim, we injected a lower dose of copper (0.2 and 0.5 μg/g) 5 times a week for 5 weeks to a new series of BALB/c mice. We observed the mice every day, monitored their weight and followed their survival to evaluate copper toxicity.

HL60 cells [4] = assay type: cell-based, Human; remark: listed apart in the source
A20 cells [5] = experiment: A20 cell viability; assay type: cell-based, mouse; settings: 48 h; for Effect on A20 viability vs control: H2O2 experiment
Method: (§1) Cells (1×10^5 per well) were seeded in 96-wells round bottom plates (Falcon, Corning, reference: 353077) and incubated for 48 hours with different experimental conditions in an incubator at 37° C. 5% CO2. Two plates were prepared in parallel to measure respectively the H2O2 production and A20 cell viability.
(§2) H2O2 production, GSH production and cell viability were measured using the same protocols as above-described for […].
(§3) Conditions of Treatments and Related Experimentations: 1 Test H2O2— 1 Test GSH • H2O2 or GSH production and cell survival: As2O3 (1 μM) with CuCl2 at 0.5; 1; 2 and 4 μM.

[6] = tested on: C57BL6 mice splenic cells; assay type: cell-based, mouse
Treg and T17 balance = settings: rheumatoid arthritis patients; Li et al. 2019; cited from earlier work
caspase-1 = molecular target: T1, caspase-1 (Homo sapiens, UniProt P29466); settings: Maier et al., J. Immunol. 2014; cited from earlier work
T1 sequence (P29466 120-404): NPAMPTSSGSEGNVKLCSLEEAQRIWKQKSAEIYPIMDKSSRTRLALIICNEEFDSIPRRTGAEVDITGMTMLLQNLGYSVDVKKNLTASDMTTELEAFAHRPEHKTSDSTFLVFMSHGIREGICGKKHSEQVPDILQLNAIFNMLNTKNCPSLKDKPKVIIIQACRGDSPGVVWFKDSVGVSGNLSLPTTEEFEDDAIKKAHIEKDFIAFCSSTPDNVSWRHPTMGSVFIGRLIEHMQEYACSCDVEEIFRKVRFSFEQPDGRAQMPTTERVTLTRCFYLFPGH

A20 cells [7] = experiment: H2O2 production in A20 cultured cells; assay type: cell-based, mouse; settings: 48 h, As2O3 at 1 μM, test 1
Method: as §1, §2, §3

MRL/lpr mice = settings: Bobé et al., Blood 2006; cited from earlier work
A20 cells [8] = experiment: GSH production in A20 cultured cells; assay type: cell-based, mouse; settings: 48 h, As2O3 at 1 μM, test 1
Method: as §1, §2, §3

[9] = Allogeneic + As2O3 2.5 μg/g, 9 mice
[10] = Allogeneic + As2O3 5 μg/g, 5 mice

Question: For [Cl][Cu][Cl] [CuCl2, copper(II) chloride], which “Mortality in the copper-treated groups” value ([1]; copper 2.5 or 10 μg/g i.p. 5 times a week, injections stopped at the end of day 4) is on record?
Answer: The value was “significant loss of mice”.

Question: What about the “Mortality in the copper-treated groups” value ([1]; copper injected only twice a week from day 8 until the end of the 5 weeks) of the same compound?
Answer: Its value is “no more copper-treated mice died”.

Question: What about the “Cell survival in presence of AsI3” value (HL60 cells [2]) of the same compound?
Answer: The value was “no effect”.

Question: What about the “Cell survival: cations vs control” value (HL60 cells [2]; HL60 cells, 48 h (GSH experiment, Example 4), concentration(s) giving a significant difference, tests 1 and 2) of the same compound?
Answer: The value was “no significant effect; also recorded: Not significant”.

Question: What about the “Cell survival: cations vs control” value (HL60 cells [2]; HL60 cells, 48 h (H2O2 experiment), cation concentration(s) giving a statistically significant difference, tests 1 and 2) of the same compound?
Answer: Its value is “no real effect; also recorded: Not significant”.

Question: And the “Cell survival: As2O3 + cations vs As2O3” value (HL60 cells [2]; HL60 cells, 48 h, As2O3 1 μM (GSH experiment, Example 4), concentration(s) giving a significant difference, tests 1 and 2)?
Answer: Its value is “no significant effect; also recorded: Not significant”.

Question: What about the “Cell survival: As2O3 + cations vs As2O3” value (HL60 cells [2]; HL60 cells, 48 h, As2O3 1 μM (H2O2 experiment), cation concentration(s) giving a statistically significant difference, tests 1 and 2) of the same compound?
Answer: Its value is “no real effect; also recorded: Not significant”.

Question: And the “Effect on HL60 survival in the presence of As2O3” value (HL60 cells [2]; HL60 cells, 48 h, CuCl2 at 1 and 4 μM with As2O3 0.1-10 μM)?
Answer: Its value is “no additional nor protective effect”.

Question: What about the “Effect on the GSH production induced by As2O3” value (HL60 cells [3]) of the same compound?
Answer: The value was “reduce”.

Question: And the “GSH Production: cations vs control” value (HL60 cells [3])?
Answer: The value was “no significant effect; also recorded: Not significant”.

Question: And the “Death after 5 weeks” value (BALB/c mice)?
Answer: Its value is “no death”.

Question: And the “Mean weights vs control group receiving PBS” value (BALB/c mice)?
Answer: The value was “similar”.

Question: And the “Effect of AsI3 on H2O2 production: AsI3 + CuCl2 vs AsI3” value (HL60 cells [4])?
Answer: Its value is “significantly increased”.

Question: What about the “Effect on the H2O2 production induced by As2O3” value (HL60 cells [4]) of the same compound?
Answer: The value was “significantly increases”.

Question: What about the “H2O2 Production: cations vs control” value (HL60 cells [4]) of the same compound?
Answer: The value was “no significant effect; also recorded: Not significant”.

Question: And the “Cell survival: As2O3 + cations vs As2O3” value (A20 cells [5]; As2O3 1 μM (GSH experiment), CuCl2 concentration(s) giving a significant increase of viability, 1 test)?
Answer: The value was 4 µM.

Question: And the “Cell proliferation: As2O3 + cations vs As2O3” value (“Cell proliferation … vs As2O3” below) ([6]; MLR, 48 h, As2O3 1 μM, cation concentration(s) giving a significant decrease of proliferation, test 1)?
Answer: The value was 4 μM (test 1).

Question: What about the “Cell proliferation … vs As2O3” value ([6]; MLR, 48 h, As2O3 1 μM, cation concentration(s) giving a significant decrease of proliferation, tests 1 and 2) of the same compound?
Answer: Its value is 4 μM or 2 and 4.

Question: What about the “Proliferation of C57BL6 spleen cells in the presence of AsI3: CuCl2 concentrations with significant decrease” value ([6]; MLR, 48 h, AsI3 1 μM, test 2) of the same compound?
Answer: Its value is 4 µM.

Question: For O=S(=O)([O-])[O-].[Fe+2] [FeSO4], which “Cell survival: As2O3 + cations vs As2O3” value (HL60 cells [2]) is on record?
Answer: Its value is “no significant effect; also recorded: Not significant”.

Question: What about the “Cell survival: cations vs control” value (HL60 cells [2]) of the same compound?
Answer: The value was “no significant effect; also recorded: Not significant”.

Question: What about the “Cell proliferation … vs As2O3” value [6] of the same compound?
Answer: Its value is “does not have a significant effect”.

Question: For [Cl][Mn][Cl] [MnCl2], which “Cell survival: As2O3 + cations vs As2O3” value (HL60 cells [2]) is on record?
Answer: The value was “Not significant”.

Question: What about the “Cell survival: cations vs control” value (HL60 cells [2]) of the same compound?
Answer: Its value is “Not significant”.

Question: What about the “H2O2 Production: As2O3 + cations vs As2O3” value (HL60 cells [4]) of the same compound?
Answer: Its value is 1 µM.

Question: What about the “H2O2 Production: cations vs control” value (HL60 cells [4]) of the same compound?
Answer: Its value is 1 µM.

Question: Which results are given for O=S(=O)([O-])[O-].[Mn+2] [MnSO4]?
Answer: Cell survival: As2O3 + cations vs As2O3 (HL60 cells [2]): no real effect; also recorded: Not significant; H2O2 Production: As2O3 + cations vs As2O3 (HL60 cells [4]): 0.25 µM

Question: For [Cl-].[Cl-].[Zn+2] [ZnCl2], which “Cell survival: As2O3 + cations vs As2O3” value (HL60 cells [2]) is on record?
Answer: Its value is “no significant and reproducible effect; also recorded: Not significant”.

Question: And the “Cell survival: cations vs control” value (HL60 cells [2])?
Answer: Its value is “Not significant”.

Question: What about the “H2O2 Production: As2O3 + cations vs As2O3” value (HL60 cells [4]) of the same compound?
Answer: Its value is “Not significant”.

Question: For O=S(=O)([O-])[O-].[Zn+2] [ZnSO4], which “Cell survival: As2O3 + cations vs As2O3” value (HL60 cells [2]) is on record?
Answer: Its value is “no significant and reproducible effect; also recorded: Not significant”.

Question: Which results are given for Arsenic Trioxide [As2O3]?
Answer: Number of mice at the end (live mice) ([1]; Allogeneic + As2O3 2.5 μg/g i.p. 5 times a week for 5 weeks, 10 mice at the beginning): 9; Ear thickness (vasculitis) ([1]; Allogeneic + As2O3 2.5 μg/g vs allogeneic): reduced; Number of mice with alopecia [1, 9]: 3; Percentage of mice with alopecia [1, 9]: 33%; Number of mice at the end (live mice) ([1]; Allogeneic + As2O3 5 μg/g i.p. 5 times a week for 5 weeks, 7 mice at the beginning): 5; Ear thickness (vasculitis) ([1]; Allogeneic + As2O3 5 μg/g vs allogeneic): decreased even more until reaching the same values as the ones of the syngeneic group; Number of mice with alopecia [1, 10]: 1; Percentage of mice with alopecia [1, 10]: 20%; Treg and T17 balance (Treg and T17 balance): improves; Inhibition of caspase-1 and the innate immune response (caspase-1): potent inhibitors; Effect on GSH production vs control (HL60 cells [3]): significantly increases; Effect on H2O2 production vs control (A20 cells [7]): significantly increased; Effect on the production of H2O2 (HL60 cells [4]): not significant, but it increases at 5 μM; Survival of MRL/lpr mice (MRL/lpr mice): significantly prolonged; Effect on A20 cells viability vs control (A20 cells [5]; As2O3 at 1 μM, GSH experiment, test 1): significantly reduced; Effect on A20 viability vs control (A20 cells [5]; As2O3 at 1 μM, test 1): reduced; Effect on A20 viability vs control (A20 cells [5]; As2O3 at 1 μM, test 2): significantly reduced; Effect on GSH production vs control (A20 cells [8]): significantly increased; Cell proliferation in the presence of mitogen [6]: completely inhibits
